One compound from EP4755885A1 (Shanghai Hansoh Biomedical Co., Ltd., priority 2023, dated 2025) can be followed below.

The structures appear in SMILES notation.

Series [1] is described as follows: Pharmacokinetic evaluation in rats, oral administration. Also on record: species or system SD rats. Particulars: rat, in vivo, p.o. 5 mg/kg, plasma. The method, then: SD rats were used as test animals to study the pharmacokinetic behavior of the following example compounds, administered orally at a dose of 5 mg/kg, in the plasma of the rats. SD rats, 3 per group, male. […] An example compound was weighed and added to a 4 mL glass bottle, and the solution was added. […] Sonication was performed for 10 min to obtain a colorless clear solution having a concentration of 0.5 mg/mL. […] The blood samples were placed in EDTA-K2 tubes and centrifuged at 6000 rpm at 4°C for 6 min to separate plasma, which was stored at -80°C. […] • Liquid phase conditions: Shimadzu LC-20AD pump • Mass spectrometry conditions: AB Sciex API 4000 mass spectrometer • Chromatographic column: phenomenex Gemiu 5 um C18 50 × 4.6 mm • Mobile phase: Solution A was 0.1% formic acid aqueous solution, and Solution B was methanol • Flow rate: 1.0 mL/min • Elution time: 0-4.0 min, the eluent was as follows: […] The results of the rat pharmacokinetic experiment are shown in the table below: Table 5: Pharmacokinetic parameters of oral administration of the compound of the present invention in rats

Series [2] in a line: Pharmacokinetic evaluation in Macaca fascicularis monkeys, intravenous administration. The format is in vivo. Particulars: cynomolgus monkey, I.V. 0.2 mg/kg, plasma. The method, then: Macaca fascicularis monkeys were used as test animals to study the pharmacokinetic behavior of the compound of the present invention, administered intravenously at a dose of 0.2 mg/kg, in Macaca fascicularis monkeys (plasma).
Macaca fascicularis monkeys, 3 per group, male, Guangxi Xiongsen, Animal Production License No.: SCXK (Gui) 2021-0004).
Preparation of drug for intravenous administration: 5%DMSO+10%Solutol HS15+85%PBS
The compound of the present invention was weighed. 5% DMSO was first added according to the proportion in the total volume, followed by vortexing and sonication for 2 min to achieve complete dissolution. Then 10% Solutol HS15 was added, followed by vortexing and sonication for 2 min to achieve complete dissolution. Finally, 85% PBS was added, followed by vortexing and sonication for 5 min and filtering through a 0.22 um filter membrane to obtain a colorless, transparent, clear solution having a concentration of 0.1 mg/mL.
Three Macaca fascicularis monkeys, male, respectively administered I.V. after fasting overnight, at a dose of 0.2 mg/kg and in an administration volume of 2 mL/kg.
0.5 mL of blood was collected from the forelimb vein of the Macaca fascicularis monkeys before administration and at 0.083, 0.25, 0.5, 1, 2, 4, 8, and 24 h after administration. The blood samples were placed in EDTA-K2 tubes and centrifuged at 6000 rpm at 4°C for 6 min to separate plasma, which was stored at -80°C.
40 µL of a plasma sample was added with 160 µL of acetonitrile for precipitation, and after mixing, the mixture was centrifuged at 3500 × g for 5 to 20 min.
100 µL of the supernatant solution after treatment was taken for LC/MS/MS analysis of the concentration of the test compound.
Liquid phase condition: Shimadzu LC-20AD pump Mass spectrometry condition: AB Sciex API 4000 mass spectrometer Chromatographic column: phenomenex Gemiu 5 um C18 50 × 4.6 mm Mobile phase: Solution A was 0.1% formic acid aqueous solution, and Solution B was acetonitrile Flow rate: 0.8 mL/min Elution time: 0-4.0 min, the eluent was as follows:
Main pharmacokinetic parameters were calculated using WinNonlin 8.2. The results of the Macaca fascicularis monkey pharmacokinetic experiment are shown in Table 8 below: Table 8: Pharmacokinetic parameters of injection administration of the compound of the present invention in Macaca fascicularis monkeys

The term AUC(0-inf) denotes total exposure, with the tail of the curve extrapolated. Read a high AUC(0-inf) as more exposure. One may read the AUC(0-t) as the area under the concentration-time curve up to a stated or last time point. A word on the Cmax: it is the maximum level reached in the sampled fluid or tissue. What is called Tmax is the time from dosing to the highest level. Usually half-life stands for the time needed for the level to fall by half in the phase considered. As to `[2H]C([2H])([2H])n1nc2c3c(c(-n4ccn(-c5c6c(nn5-c5cc(C)c(F)c(C)c5)CCN(C(=O)c5cc7cc([C@H]8CCOC(C)(C)C8)ccc7n5[C@@]5(c7noc(=O)[nH]7)C[C@@H]5C)[C@H]6C)c4=O)ccc31)OCCC2` [Example 282, 3-((1S,2S)-1-(5-((S)-2,2-dimethyltetrahydro-2H-pyran-4-yl)-2-((S)-2-(4-fluoro-3,5-dimethylphenyl)-4-methyl-3-(3-(2-(methyl-d3)-2,7,8,9-tetrahydrooxaheptano[4,3,2-cd]indazol-5-yl)-2-carbonyl-2,3-dihydro-1H-imidazol-1-yl)-4,5,6,7-tetrahydro-2H-pyrazolo[4,3-c]pyridine-5-carbonyl)-1H-indol-1-yl)-2-methylcyclopropyl)-1,2,4-oxadiazol-5(4H)-one], in series [1], the AUC(0-inf) turned out to be 13900 ng·h/mL, the exposure AUC(0-t) at 24 h stood at 12200 ng·h/mL, the highest concentration (Cmax) was determined as 971 ng/mL and the time of peak concentration (Tmax) stood at 6 h. The same compound gave a half-life in series [1] of 7.3 h. In addition, in series [1] (read-out: MRT 0-∞), the MRT inf was found to be 12 h. For the same compound, in series [2], the AUC(0-inf) stood at 1930 ng·h/mL, the AUC(0-t) is 1680 ng·h/mL, the C0 was 1080 ng/mL and the half-life is 9.8 h. Further, in series [2] (read-out: MRT 0-∞), the MRT inf stood at 10.3 h.
